According to patent US8486719B2, “Multiplex assay methods and compositions” (PerkinElmer BioSignal, Inc., priority 2009, dated 2013):

How the values were obtained:
[1] = target: MEK1/ERK2 (Homo sapiens, UniProt Q02750); assay: One well multiplexed assay, 615 nm signal: interaction between MEK1 and ERK2 with increasing ATP; format: binding; settings: signal detected at 615 nm, FIG. 4; read-out: EC50 for ATP-induced MEK1/ERK2 dissociation
Source text: (§1) The kinase MEK1 is expressed with a histidine tag (6×His) at either the C- or N-terminus.
(§2) An antibody which recognizes MEK1 phosphorylated ERK2 (mouse anti-pTpY ERK1/2) is associated with acceptor beads containing thioxene, 9,10-bis(phenylethynyl)anthracene and rubrene via anti-mouse IgG antibody binding. The antibody used, p-Tyr-100, is a generic highly promiscuous anti-phosphotyrosine antibody which recognizes both mono (pY) and dual-(pTpY) phosphorylated forms of ERK2.
(§3) Increasing concentrations of ATP were used to promote the phosphorylation of ERK2 by MEK1.

[2] = target: MEK1 (Homo sapiens, UniProt Q02750); assay: One well multiplexed assay, 572 nm signal: ERK2 phosphorylation by MEK1 with increasing ATP; format: biochemical; settings: signal detected at 572 nm, FIG. 4; read-out: EC50 for ATP-induced ERK2 phosphorylation
Source text: as §1, §2, §3

[3] = target: T1, human bombesin (hBombesin) 3 (Homo sapiens, UniProt P32247); assay: Surface expression of FLAG-tagged bombesin receptor on phthalocyanine-loaded cells, anti-FLAG acceptor beads; format: cell-based; settings: 10 nM or 300 nM agonist, 1 hour at 37° C., Balb3T3 hBombesin 3 FLAG cells
T1 construct: expressed in transfected cells; host or cells: Balb3T3
T1 sequence (P32247 1-399): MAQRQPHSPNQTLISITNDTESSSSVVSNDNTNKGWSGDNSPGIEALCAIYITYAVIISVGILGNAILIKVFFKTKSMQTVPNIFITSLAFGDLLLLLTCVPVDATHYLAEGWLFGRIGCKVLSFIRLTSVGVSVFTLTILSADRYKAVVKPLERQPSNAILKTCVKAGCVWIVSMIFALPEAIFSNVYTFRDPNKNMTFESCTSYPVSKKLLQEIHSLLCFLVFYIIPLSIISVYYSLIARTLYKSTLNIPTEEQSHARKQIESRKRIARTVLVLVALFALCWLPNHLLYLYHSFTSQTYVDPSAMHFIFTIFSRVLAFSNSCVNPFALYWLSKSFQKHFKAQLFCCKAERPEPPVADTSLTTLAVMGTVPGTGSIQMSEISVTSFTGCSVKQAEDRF
Method: Bombesin receptor is a well-characterized cell surface receptor which is known to internalize and decrease in cell surface expression following agonist (bombesin) binding. Balb3T3 cells expressing human bombesin (hBombesin) 3 with a FLAG tag and Balb3T3 cells expressing human bombesin 3 without a FLAG tag were used to monitor the expression and binding activity of the bombesin receptor, GPCR in these cells.
About 10 nM or 300 nM of the Bombesin peptide agonist, (6-14)[D-tyr6, b-Ala11, Phe13, Nle14] was incubated with Balb3T3 hBombesin 3 FLAG cells and Balb3T3 hBombesin WT cells for 1 hour at 37° C. after which cells were harvested, labeled with 10 μM to 30 μM Al^3+-phthalocyanine. The phthalocyanine-loaded cells are washed several times in MES or HEPES buffer following the incubation to remove excess phthalocyanine. About 20 to 40 of the anti-FLAG antibody-conjugated acceptor beads including a thioxene and europium chelate emission system are added to the assay mix including MES or HEPES buffer and the phthalocyanine-loaded cells and incubated for 1 hour at room temperature. […] The FLAG-tagged hBombesin was detected with anti-FLAG Acceptor beads in the assay.

Sequence of MEK1/ERK2 (Q02750 whole entry, species assumed): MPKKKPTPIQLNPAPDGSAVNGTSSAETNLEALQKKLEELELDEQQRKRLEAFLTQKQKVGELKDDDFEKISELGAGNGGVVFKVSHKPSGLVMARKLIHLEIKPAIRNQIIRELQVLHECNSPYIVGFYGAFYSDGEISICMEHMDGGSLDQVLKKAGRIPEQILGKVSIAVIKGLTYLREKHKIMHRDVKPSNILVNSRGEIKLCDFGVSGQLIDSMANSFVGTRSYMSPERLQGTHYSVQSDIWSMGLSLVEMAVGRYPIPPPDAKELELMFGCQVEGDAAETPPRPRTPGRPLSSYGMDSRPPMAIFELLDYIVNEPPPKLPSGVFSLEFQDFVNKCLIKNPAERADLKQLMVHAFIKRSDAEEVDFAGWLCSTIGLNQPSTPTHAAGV
Sequence of MEK1 (Q02750 whole entry, species assumed): as above

Row | EC50 [1] [nM] | EC50 [2] [nM] | Compound | surface expression of the bombesin receptor following agonist stimulation [3]
1 | ~1000 | ~1000 | Nc1ncnc2c1ncn2[C@@H]1O[C@H](COP(=O)(O)OP(=O)(O)OP(=O)(O)O)[C@@H](O)[C@H]1O [ATP] | –
2 | – | – | (6-14)[D-tyr6, b-Ala11, Phe13, Nle14] | Changes in surface expression of the bombesin receptor following agonist stimulation are detected
